Results: the supplement of paper PMC13380429

Key:
Settings in all cases: 72 h
[1] = system: HepG2; test: cell viability relative to DMSO; higher = less toxic
[2] = system: U2OS; test: as above
[3] = system: Caco-2; test: as above
[4] = system: Calu-3; test: as above
[5] = system: Vero E6; test: as above
[6] = system: HepG2; test: relative viability EC50 (midpoint between 100% and the lowest measured viability); higher = less toxic
[7] = system: U2OS; test: as above
[8] = system: Caco-2; test: as above
[9] = system: Calu-3; test: as above
[10] = system: Vero E6; test: as above
[11] = system: HepG2; test: drug sensitivity score (DSS) for viability; higher = more toxic; extreme values may be limits of the assay
[12] = system: U2OS; test: as above
[13] = system: Caco-2; test: as above
[14] = system: Calu-3; test: as above
[15] = system: Vero E6; test: as above

SMILES | cell viability ([1]; 1 nM) [%] | cell viability ([1]; 10 nM) [%] | cell viability ([1]; 100 nM) [%] | cell viability ([1]; 1000 nM) [%] | cell viability ([1]; 10000 nM) [%] | cell viability ([2]; 1 nM) [%] | cell viability ([2]; 10 nM) [%] | cell viability ([2]; 100 nM) [%] | cell viability ([2]; 1000 nM) [%] | cell viability ([2]; 10000 nM) [%] | cell viability ([3]; 1 nM) [%] | cell viability ([3]; 10 nM) [%] | cell viability ([3]; 100 nM) [%] | cell viability ([3]; 1000 nM) [%] | cell viability ([3]; 10000 nM) [%] | cell viability ([4]; 1 nM) [%] | cell viability ([4]; 10 nM) [%] | cell viability ([4]; 100 nM) [%] | cell viability ([4]; 1000 nM) [%] | cell viability ([4]; 10000 nM) [%] | cell viability ([5]; 1 nM) [%] | cell viability ([5]; 10 nM) [%] | cell viability ([5]; 100 nM) [%] | cell viability ([5]; 1000 nM) [%] | cell viability ([5]; 10000 nM) [%] | relative viability EC50 [6] [µM] | relative viability EC50 [7] [µM] | relative viability EC50 [8] [µM] | relative viability EC50 [9] [µM] | relative viability EC50 [10] [µM] | drug sensitivity score [11] | drug sensitivity score [12] | drug sensitivity score [13] | drug sensitivity score [14] | drug sensitivity score [15]
Cc1cccc(-c2nn3c(c2-c2ccnc4ccc(C(N)=O)cc24)CCC3)n1 | 103 | 96.5 | 106 | 99.4 | 106 | 98.3 | 99.5 | 95.8 | 96 | 92.6 | 96.9 | 87.8 | 93.1 | 100 | 109 | 95.4 | 108 | 91.4 | 105 | 113 | 98.9 | 99 | 101 | 99.9 | 113 | > 10 | > 10 | > 10 | > 10 | > 10 | 0 | 0 | 0 | 0 | 0
CC(C)(C)c1ccc2cc(C#N)c(C#N)cc2c1 [BRD9876] | 97.7 | 98.8 | 90.7 | 89.9 | 97.6 | 101 | 106 | 95.6 | 99.8 | 94.9 | 99 | 98.6 | 102 | 96 | 89 | 103 | 100 | 90.2 | 95.8 | 85.9 | 98.5 | 104 | 99.2 | 99.4 | 97.8 | > 10 | > 10 | > 10 | > 10 | > 10 | 0 | 0 | 0.1 | 0.2 | 0
COc1cc(OC)c(NC(=O)Nc2cc(C)on2)cc1Cl | 102 | 108 | 97 | 110 | 103 | 97 | 99.9 | 97.2 | 98.4 | 97.4 | 98.9 | 102 | 90.3 | 96.3 | 90 | 86.7 | 98.4 | 97.2 | 95.1 | 90 | 99 | 104 | 102 | 104 | 96.8 | > 10 | > 10 | > 10 | > 10 | > 10 | 0 | 0 | 0 | 0 | 0
CC(C)n1c(=O)n(C(=O)N[C@H]2C[C@H]3CC[C@@H](C2)N3C)c2ccccc21 [BIMU-8] | 93.2 | 95.2 | 90.5 | 93.2 | 97 | 102 | 103 | 99.1 | 101 | 99.1 | 99 | 105 | 98.1 | 102 | 96.9 | 96.4 | 105 | 96.3 | 92.3 | 93.9 | 105 | 99.6 | 99.6 | 98.9 | 94.7 | > 10 | > 10 | > 10 | > 10 | > 10 | 0 | 0 | 0 | 0 | 0
C=C(C)[C@@H]1CCC(C)=C[C@H]1c1c(OC)cc(C)cc1OC [O-1918] | 101 | 94.9 | 104 | 95.3 | 95.9 | 102 | 106 | 97 | 101 | 99 | 96.4 | 105 | 100 | 98.5 | 105 | 102 | 97.5 | 96 | 91.6 | 95.9 | 106 | 102 | 106 | 99.5 | 102 | > 10 | > 10 | > 10 | > 10 | > 10 | 0 | 0 | 0 | 0 | 0
Cc1ccc(C(=O)Nc2ccc(CN3CCN(C)CC3)c(C(F)(F)F)c2)cc1C#Cc1cnc2[nH]ncc2c1 [GZD824] | 106 | 98.8 | 71.2 | 27.1 | 0.4 | 99.5 | 104 | 77.5 | 32.5 | 0.3 | 102 | 98.6 | 86.7 | 59 | 2.4 | 96.7 | 86.8 | 76.8 | 45.9 | 3.7 | 103 | 102 | 86.5 | 19.1 | 0.2 | 0.297 | 0.42 | 1.17 | 0.497 | 0.365 | 17.2 | 15.4 | 10.1 | 13.9 | 16.6
O=C(O)C(=O)CBr [3-bromopyruvate] | 104 | 92.1 | 100 | 99.7 | 101 | 97.7 | 99.4 | 98 | 102 | 104 | 95.5 | 97.1 | 96.5 | 97.2 | 97.9 | 102 | 98 | 105 | 98.9 | 94.2 | 96.7 | 96.6 | 96.9 | 96.7 | 92.8 | > 10 | > 10 | > 10 | > 10 | > 10 | 0 | 0 | 0 | 0 | 0
C=CCc1ccc(O)c(-c2ccc(O)c(CC=C)c2)c1 [honokiol] | 108 | 109 | 109 | 93.2 | 88.4 | 94.4 | 95.1 | 99.3 | 99.4 | 88.9 | 93.8 | 94.3 | 102 | 90.1 | 90.9 | 104 | 111 | 94.4 | 96.6 | 97 | 95.7 | 98.9 | 97.7 | 95.4 | 107 | > 10 | > 10 | > 10 | > 10 | > 10 | 0.2 | 0 | 0 | 0 | 0
Cc1cc(-c2ncc(CC(=O)Nc3ccc(-c4cnccn4)cn3)cc2C)ccn1 [LGK-974] | 95 | 99.7 | 97.9 | 96.9 | 39.6 | 97.4 | 96.8 | 92.7 | 93.4 | 91.4 | 97.1 | 96.6 | 89.2 | 91.2 | 75.2 | 93.6 | 97 | 84.2 | 90.3 | 87.8 | 93 | 96.6 | 90.7 | 93.4 | 107 | 2.77 | > 10 | > 10 | > 10 | > 10 | 3.7 | 0 | 1.8 | 0.8 | 0
O=C(/C=C/c1ccc(O)c(O)c1)O[C@H](Cc1ccc(O)c(O)c1)C(=O)O [rosmarinic-acid] | 98.8 | 111 | 106 | 96.7 | 102 | 101 | 103 | 94.8 | 104 | 98.6 | 91.5 | 102 | 87.7 | 99.1 | 88 | 105 | 109 | 101 | 88.5 | 94.5 | 102 | 103 | 99.1 | 96.4 | 99.6 | > 10 | > 10 | > 10 | > 10 | > 10 | 0 | 0 | 0 | 0.4 | 0
C[C@@H](Oc1ccc2[nH]nc(/C=C/c3cnn(CCO)c3)c2c1)c1c(Cl)cncc1Cl | 108 | 102 | 85.5 | 46.4 | 10.6 | 94.3 | 94.3 | 91 | 33.5 | 0.2 | 87.3 | 99.5 | 91.5 | 83.3 | 33.1 | 101 | 99.9 | 98.6 | 75.5 | 31.8 | 95.3 | 92.4 | 98.6 | 71.9 | 12.7 | 0.617 | 0.582 | 1.61 | 1.26 | 1.35 | 12.1 | 14 | 6.1 | 7.2 | 8.9
